Experimental data as given in patent US20260151441A1, “NOVEL USE OF LACTOBACILLUS DELBRUECKII SUBSP. LACTIS STRAIN” (CKD BIO CORPORATION, priority 2022, published 2026).

How the values were obtained:
[1] = Y-maze test in scopolamine-induced cognitive impairment animal model; assay type: in vivo; settings: 5 mg/kg
Protocol: The Y-maze test is used to assess short-term memory and momentary spatial perception by evaluating the animal's ability to remember the previously explored arm, with higher memory performance indicated by a lower tendency to re-enter the same arm.
Specifically, scopolamine, which induces memory impairment, was administered together with either saline (vehicle), a known treatment for cognitive impairment or AD (donepezil or decursin), or the strain of the present invention, followed by the Y-maze test.
The Y-maze consists of three arms with dimensions of 40 cm in length, 3 cm in width, and 15 cm in height, with the angles between the arms set at 120°. […]
The control and experimental groups were placed at the center of the Y-maze, where they were allowed to explore the maze for 8 minutes. The movement of each individual was analyzed using EthoVision XT16 (Noldus, USA). The experimental results were obtained as spontaneous alternation behavior (%) and calculated according to the following equation: […]

[2] = Passive avoidance test in scopolamine-induced cognitive impairment animal model; assay type: in vivo, rodents; settings: 5 mg/kg, 24 h after shock
Source text: The passive avoidance test is a cognitive ability assessment experiment that utilizes the preference of rodents to stay in dark places.
Specifically, saline (as a vehicle), donepezil (a therapeutic agent for cognitive impairment or AD), decursin (a functional ingredient recognized for improving cognitive function), or the strain of the present invention was co-administered with scopolamine which induces memory impairment, followed by the passive avoidance test. […]
The control and experimental groups were placed in chambers consisting of a bright chamber and a dark chamber of the same size. […] After 24 hours, the animals were again placed in the bright chamber, and the time taken to enter the dark chamber was measured for up to 300 seconds to evaluate memory.

Row | Compound | increase in spontaneous alternation behavior compared to vehicle-treated group (G2) [1] [fold] | memory recovery [2]
1 | CC(C)=CC(=O)O[C@H]1Cc2cc3ccc(=O)oc3cc2OC1(C)C [decursin] | ~1.3 | about 87%
2 | COc1cc2c(cc1OC)C(=O)C(CC1CCN(Cc3ccccc3)CC1)C2 (stereo not shown) [donepezil] | ~1.3 | about 74%
